The kinase profiling compilation of Christmann-Franck et al. (2016)

Columns and labels:
Test in all cases: KINOMEscan competition binding
Conditions in all cases: compound 10.0 µM
PRKCH (human) = PRKCH (human) (UniProt P24723)
SYK (human) = SYK (human) (UniProt P43405)
EPHA3 (human) = EPHA3 (human) (UniProt P29320)
FGFR4 (human) = FGFR4 (human) (UniProt P22455)
STK36 (human) = STK36 (human) (UniProt Q9NRP7)
CPK1 (P.falciparum) = test system: CPK1 (P.falciparum)
YSK4 (human) = YSK4 (human) (UniProt Q56UN5)
CDK17 (human) = CDK17 (human) (UniProt Q00537)
PIK3C2B (human) = PIK3C2B (human) (UniProt O00750)
MTOR (human) = MTOR (human) (UniProt P42345)
CLK4 (human) = CLK4 (human) (UniProt Q9HAZ1)
EPHB2 (human) = EPHB2 (human) (UniProt P29323)
MAP2K7 (human) = MAP2K7 (human) (UniProt O14733)
STK3 (human) = STK3 (human) (UniProt Q13188)
MAP3K11 (human) = MAP3K11 (human) (UniProt Q16584)
MERTK (human) = MERTK (human) (UniProt Q12866)
NEK7 (human) = NEK7 (human) (UniProt Q8TDX7)
RPS6KA6 KD1 (human) = RPS6KA6 KD1 (human) (UniProt Q9UK32)
CSNK1G1 (human) = CSNK1G1 (human) (UniProt Q9HCP0)
MKNK2 (human) = MKNK2 (human) (UniProt Q9HBH9)
EPHA4 (human) = EPHA4 (human) (UniProt P54764)
CASK (human) = CASK (human) (UniProt O14936)
DDR2 (human) = DDR2 (human) (UniProt Q16832)
CSNK2A2 (human) = CSNK2A2 (human) (UniProt P19784)
CDKL2 (human) = CDKL2 (human) (UniProt Q92772)
CAMKK2 (human) = CAMKK2 (human) (UniProt Q96RR4)
MAST1 (human) = MAST1 (human) (UniProt Q9Y2H9)
MAP3K6 (human) = MAP3K6 (human) (UniProt O95382)
MAPK13 (human) = MAPK13 (human) (UniProt O15264)
RET (human) = RET (human) (UniProt P07949)
ANKK1 (human) = ANKK1 (human) (UniProt Q8NFD2)
PKMYT1 (human) = PKMYT1 (human) (UniProt Q99640)
CAMK2B (human) = CAMK2B (human) (UniProt Q13554)
AKT1 (human) = AKT1 (human) (UniProt P31749)
PRKACA (human) = PRKACA (human) (UniProt P17612)
EPHB4 (human) = EPHB4 (human) (UniProt P54760)
MAP2K4 (human) = MAP2K4 (human) (UniProt P45985)
PRPF4B (human) = PRPF4B (human) (UniProt Q13523)
ADCK3 (human) = ADCK3 (human) (UniProt Q8NI60)
DAPK1 (human) = DAPK1 (human) (UniProt P53355)

MERTK (human), sequence (Q12866 whole entry, looked up): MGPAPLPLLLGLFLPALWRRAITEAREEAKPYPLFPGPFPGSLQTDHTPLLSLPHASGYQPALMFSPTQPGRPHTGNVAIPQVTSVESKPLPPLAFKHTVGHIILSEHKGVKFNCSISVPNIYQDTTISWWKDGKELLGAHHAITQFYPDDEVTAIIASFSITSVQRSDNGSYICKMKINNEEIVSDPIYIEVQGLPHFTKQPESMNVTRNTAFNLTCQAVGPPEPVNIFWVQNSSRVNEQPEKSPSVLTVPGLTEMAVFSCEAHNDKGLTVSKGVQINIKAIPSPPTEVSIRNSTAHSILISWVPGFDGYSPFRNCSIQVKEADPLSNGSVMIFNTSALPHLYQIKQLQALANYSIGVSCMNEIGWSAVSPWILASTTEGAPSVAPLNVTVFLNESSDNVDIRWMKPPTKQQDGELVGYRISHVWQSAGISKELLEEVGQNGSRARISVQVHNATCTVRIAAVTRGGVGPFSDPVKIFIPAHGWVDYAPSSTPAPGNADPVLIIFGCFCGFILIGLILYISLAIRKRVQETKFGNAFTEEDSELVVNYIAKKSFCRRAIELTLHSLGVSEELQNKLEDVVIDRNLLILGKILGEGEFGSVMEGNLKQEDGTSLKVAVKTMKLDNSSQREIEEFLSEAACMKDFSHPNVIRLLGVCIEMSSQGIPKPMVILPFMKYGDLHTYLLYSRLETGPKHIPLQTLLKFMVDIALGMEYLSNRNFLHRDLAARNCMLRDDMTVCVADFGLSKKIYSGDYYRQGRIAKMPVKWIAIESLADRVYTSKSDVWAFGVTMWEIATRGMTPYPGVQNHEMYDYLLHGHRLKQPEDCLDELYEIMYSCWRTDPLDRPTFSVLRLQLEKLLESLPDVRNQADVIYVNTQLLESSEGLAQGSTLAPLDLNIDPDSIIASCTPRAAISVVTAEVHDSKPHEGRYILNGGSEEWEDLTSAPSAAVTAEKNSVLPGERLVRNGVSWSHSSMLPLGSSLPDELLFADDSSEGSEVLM
PKMYT1 (human), sequence (Q99640 whole entry, looked up): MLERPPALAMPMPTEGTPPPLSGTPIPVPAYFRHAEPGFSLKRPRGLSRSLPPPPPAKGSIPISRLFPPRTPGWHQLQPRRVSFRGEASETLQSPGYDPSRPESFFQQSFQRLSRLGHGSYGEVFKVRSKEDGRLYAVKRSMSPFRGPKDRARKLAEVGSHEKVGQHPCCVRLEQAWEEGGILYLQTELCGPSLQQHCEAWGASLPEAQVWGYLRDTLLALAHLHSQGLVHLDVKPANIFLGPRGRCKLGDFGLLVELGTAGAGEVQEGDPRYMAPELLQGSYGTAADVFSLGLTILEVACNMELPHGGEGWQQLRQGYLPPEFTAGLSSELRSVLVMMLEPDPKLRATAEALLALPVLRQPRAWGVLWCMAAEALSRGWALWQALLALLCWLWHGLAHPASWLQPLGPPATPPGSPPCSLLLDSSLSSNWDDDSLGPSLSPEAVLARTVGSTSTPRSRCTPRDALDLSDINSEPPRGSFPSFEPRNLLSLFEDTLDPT
MAP2K4 (human), sequence (P45985 whole entry, looked up): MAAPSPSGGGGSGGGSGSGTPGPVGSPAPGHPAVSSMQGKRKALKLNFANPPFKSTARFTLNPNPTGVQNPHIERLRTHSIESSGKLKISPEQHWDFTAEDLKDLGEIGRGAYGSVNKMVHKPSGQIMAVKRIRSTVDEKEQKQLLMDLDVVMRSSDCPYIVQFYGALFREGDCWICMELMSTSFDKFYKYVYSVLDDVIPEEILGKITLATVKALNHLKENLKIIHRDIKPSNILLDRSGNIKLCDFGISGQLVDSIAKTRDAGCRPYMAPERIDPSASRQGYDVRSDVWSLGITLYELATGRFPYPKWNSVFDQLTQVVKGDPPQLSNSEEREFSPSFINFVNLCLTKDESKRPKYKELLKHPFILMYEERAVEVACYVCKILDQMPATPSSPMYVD
YSK4 (human), sequence (Q56UN5 whole entry, looked up): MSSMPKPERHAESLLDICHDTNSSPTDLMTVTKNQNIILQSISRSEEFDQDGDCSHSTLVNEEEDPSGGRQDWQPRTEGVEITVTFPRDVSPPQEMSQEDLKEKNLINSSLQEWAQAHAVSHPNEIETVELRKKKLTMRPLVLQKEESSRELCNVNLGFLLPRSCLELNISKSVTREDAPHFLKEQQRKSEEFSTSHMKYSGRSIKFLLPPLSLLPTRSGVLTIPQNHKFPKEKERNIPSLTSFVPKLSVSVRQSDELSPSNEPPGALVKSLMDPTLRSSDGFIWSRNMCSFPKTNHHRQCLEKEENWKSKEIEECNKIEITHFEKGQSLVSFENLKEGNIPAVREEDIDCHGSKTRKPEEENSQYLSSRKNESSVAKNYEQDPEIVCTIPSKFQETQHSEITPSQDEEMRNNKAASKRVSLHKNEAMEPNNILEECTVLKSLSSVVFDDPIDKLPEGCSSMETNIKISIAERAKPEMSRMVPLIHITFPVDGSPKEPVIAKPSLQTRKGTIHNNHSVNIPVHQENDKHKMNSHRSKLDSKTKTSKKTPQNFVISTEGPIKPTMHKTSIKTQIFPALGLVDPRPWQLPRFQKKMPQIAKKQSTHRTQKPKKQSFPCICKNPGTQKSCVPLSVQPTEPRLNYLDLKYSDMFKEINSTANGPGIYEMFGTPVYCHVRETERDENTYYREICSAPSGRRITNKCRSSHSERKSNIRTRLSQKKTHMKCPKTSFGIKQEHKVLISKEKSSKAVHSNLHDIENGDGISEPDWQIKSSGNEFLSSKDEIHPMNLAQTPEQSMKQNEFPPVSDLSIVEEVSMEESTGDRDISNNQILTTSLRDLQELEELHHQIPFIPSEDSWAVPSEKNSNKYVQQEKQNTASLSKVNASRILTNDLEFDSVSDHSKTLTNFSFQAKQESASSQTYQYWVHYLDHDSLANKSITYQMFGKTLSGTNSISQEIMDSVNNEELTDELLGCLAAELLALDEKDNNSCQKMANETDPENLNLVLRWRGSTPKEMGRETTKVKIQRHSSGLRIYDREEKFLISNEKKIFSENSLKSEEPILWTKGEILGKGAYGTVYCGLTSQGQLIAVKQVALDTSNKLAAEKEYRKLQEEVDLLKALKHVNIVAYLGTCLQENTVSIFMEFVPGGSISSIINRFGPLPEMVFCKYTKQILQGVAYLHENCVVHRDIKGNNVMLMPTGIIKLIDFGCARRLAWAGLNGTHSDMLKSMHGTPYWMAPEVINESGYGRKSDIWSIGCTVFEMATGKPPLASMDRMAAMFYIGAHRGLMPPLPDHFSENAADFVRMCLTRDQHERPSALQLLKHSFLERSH
PRKCH (human), sequence (P24723 whole entry, looked up): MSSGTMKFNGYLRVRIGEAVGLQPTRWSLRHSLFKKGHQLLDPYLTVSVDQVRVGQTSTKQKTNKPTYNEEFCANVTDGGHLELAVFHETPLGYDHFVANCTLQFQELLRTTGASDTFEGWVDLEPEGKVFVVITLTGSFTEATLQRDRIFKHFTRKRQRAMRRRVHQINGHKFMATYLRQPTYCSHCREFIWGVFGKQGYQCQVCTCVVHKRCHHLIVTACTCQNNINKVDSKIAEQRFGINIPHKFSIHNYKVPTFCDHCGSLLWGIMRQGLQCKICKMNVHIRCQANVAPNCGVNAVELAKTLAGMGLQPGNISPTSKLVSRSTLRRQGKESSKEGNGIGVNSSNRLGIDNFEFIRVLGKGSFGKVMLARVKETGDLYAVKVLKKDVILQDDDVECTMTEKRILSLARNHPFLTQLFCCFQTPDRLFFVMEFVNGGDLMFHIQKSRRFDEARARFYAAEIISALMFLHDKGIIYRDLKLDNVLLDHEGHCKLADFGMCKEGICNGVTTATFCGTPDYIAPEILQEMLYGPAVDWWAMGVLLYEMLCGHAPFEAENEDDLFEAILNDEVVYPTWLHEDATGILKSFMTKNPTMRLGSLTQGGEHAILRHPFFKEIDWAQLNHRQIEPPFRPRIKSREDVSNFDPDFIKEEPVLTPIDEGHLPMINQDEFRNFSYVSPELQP
PRPF4B (human), sequence (Q13523 whole entry, looked up): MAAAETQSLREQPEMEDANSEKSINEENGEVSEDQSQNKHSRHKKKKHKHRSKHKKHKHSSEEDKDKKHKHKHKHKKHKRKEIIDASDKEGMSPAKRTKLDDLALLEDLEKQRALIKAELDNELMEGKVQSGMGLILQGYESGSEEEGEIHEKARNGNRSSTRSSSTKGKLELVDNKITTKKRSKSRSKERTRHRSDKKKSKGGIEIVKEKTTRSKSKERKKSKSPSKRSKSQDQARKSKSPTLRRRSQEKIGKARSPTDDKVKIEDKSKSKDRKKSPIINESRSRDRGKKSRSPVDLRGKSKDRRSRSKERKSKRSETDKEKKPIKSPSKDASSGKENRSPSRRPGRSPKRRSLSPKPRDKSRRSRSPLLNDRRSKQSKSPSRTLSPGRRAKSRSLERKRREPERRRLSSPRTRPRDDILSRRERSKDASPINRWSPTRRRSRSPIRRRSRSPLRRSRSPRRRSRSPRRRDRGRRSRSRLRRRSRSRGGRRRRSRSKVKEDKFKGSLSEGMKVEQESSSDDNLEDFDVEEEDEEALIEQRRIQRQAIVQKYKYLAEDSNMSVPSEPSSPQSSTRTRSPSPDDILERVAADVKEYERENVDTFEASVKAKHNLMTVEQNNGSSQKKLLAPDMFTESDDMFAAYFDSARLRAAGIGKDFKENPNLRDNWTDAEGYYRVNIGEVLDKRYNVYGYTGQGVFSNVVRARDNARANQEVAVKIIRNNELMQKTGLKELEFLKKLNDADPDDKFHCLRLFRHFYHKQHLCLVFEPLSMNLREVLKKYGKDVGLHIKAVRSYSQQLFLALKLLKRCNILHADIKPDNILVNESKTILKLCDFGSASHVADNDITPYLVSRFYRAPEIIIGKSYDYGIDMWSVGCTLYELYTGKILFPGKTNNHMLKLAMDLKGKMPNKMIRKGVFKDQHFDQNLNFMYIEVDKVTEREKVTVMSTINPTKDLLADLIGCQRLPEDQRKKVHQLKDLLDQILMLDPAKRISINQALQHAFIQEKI

Row | Compound | kinase still bound, per cent of control (PRKCH (human)) [%] | kinase still bound, per cent of control (SYK (human)) [%] | kinase still bound, per cent of control (EPHA3 (human)) [%] | kinase still bound, per cent of control (FGFR4 (human)) [%] | kinase still bound, per cent of control (STK36 (human)) [%] | kinase still bound, per cent of control (CPK1 (P.falciparum)) [%] | kinase still bound, per cent of control (YSK4 (human)) [%] | kinase still bound, per cent of control (CDK17 (human)) [%] | kinase still bound, per cent of control (PIK3C2B (human)) [%] | kinase still bound, per cent of control (MTOR (human)) [%] | kinase still bound, per cent of control (CLK4 (human)) [%] | kinase still bound, per cent of control (EPHB2 (human)) [%] | kinase still bound, per cent of control (MAP2K7 (human)) [%] | kinase still bound, per cent of control (STK3 (human)) [%] | kinase still bound, per cent of control (MAP3K11 (human)) [%] | kinase still bound, per cent of control (MERTK (human)) [%] | kinase still bound, per cent of control (NEK7 (human)) [%] | kinase still bound, per cent of control (RPS6KA6 KD1 (human)) [%] | kinase still bound, per cent of control (CSNK1G1 (human)) [%] | kinase still bound, per cent of control (MKNK2 (human)) [%] | further results
1 | C[C@@H](Oc1cc(-n2cnc3ccc(CN4CCN(C)CC4)cc32)sc1C(N)=O)c1ccccc1C(F)(F)F | 90 | 100 | 100 | 100 | 98 | 62 | 12 | 90 | 14 | 55 | 59 | 99 | 80 | 74 | 75 | 24 | 66 | 0.6 | 100 | 23 | kinase still bound, per cent of control (EPHA4 (human)): 100%; kinase still bound, per cent of control (CASK (human)): 50%; kinase still bound, per cent of control (DDR2 (human)): 77%; kinase still bound, per cent of control (CSNK2A2 (human)): 4.6%; kinase still bound, per cent of control (CDKL2 (human)): 90%; kinase still bound, per cent of control (CAMKK2 (human)): 66%; kinase still bound, per cent of control (MAST1 (human)): 3.1%; kinase still bound, per cent of control (MAP3K6 (human)): 75%; kinase still bound, per cent of control (MAPK13 (human)): 100%; kinase still bound, per cent of control (RET (human)): 100%; kinase still bound, per cent of control (ANKK1 (human)): 26%; kinase still bound, per cent of control (PKMYT1 (human)): 100%; kinase still bound, per cent of control (CAMK2B (human)): 19%; kinase still bound, per cent of control (AKT1 (human)): 100%; kinase still bound, per cent of control (PRKACA (human)): 100%; kinase still bound, per cent of control (EPHB4 (human)): 100%; kinase still bound, per cent of control (MAP2K4 (human)): 86%; kinase still bound, per cent of control (PRPF4B (human)): 39%; kinase still bound, per cent of control (ADCK3 (human)): 77%
2 | CN(C)C/C=C/C(=O)Nc1cccc(Nc2ncc3c(n2)N(C)c2ccccc2C(=O)N3C)c1 | 100 | 50 | 43 | 22 | 100 | 74 | 6.2 | 80 | 56 | 74 | 100 | 100 | 97 | 0 | 100 | 46 | 100 | 9.2 | 47 | 0.3 | kinase still bound, per cent of control (EPHA4 (human)): 79%; kinase still bound, per cent of control (CASK (human)): 39%; kinase still bound, per cent of control (DDR2 (human)): 11%; kinase still bound, per cent of control (DAPK1 (human)): 52%; kinase still bound, per cent of control (CSNK2A2 (human)): 87%; kinase still bound, per cent of control (CDKL2 (human)): 92%; kinase still bound, per cent of control (CAMKK2 (human)): 8.1%; kinase still bound, per cent of control (MAST1 (human)): 100%; kinase still bound, per cent of control (MAP3K6 (human)): 94%; kinase still bound, per cent of control (MAPK13 (human)): 61%; kinase still bound, per cent of control (RET (human)): 0.15%; kinase still bound, per cent of control (ANKK1 (human)): 6%; kinase still bound, per cent of control (PKMYT1 (human)): 100%; kinase still bound, per cent of control (CAMK2B (human)): 40%; kinase still bound, per cent of control (AKT1 (human)): 100%; kinase still bound, per cent of control (PRKACA (human)): 100%; kinase still bound, per cent of control (EPHB4 (human)): 83%; kinase still bound, per cent of control (MAP2K4 (human)): 100%; kinase still bound, per cent of control (PRPF4B (human)): 100%; kinase still bound, per cent of control (ADCK3 (human)): 74%
3 | O=C(O)c1ccc(Nc2ncc3c(n2)-c2ccc(Cl)cc2C(c2c(F)cccc2F)=NC3)cc1 | 100 | 78 | 15 | 58 | 100 | 63 | 62 | 100 | 93 | 75 | 100 | 50 | 100 | 48 | 84 | 3 | 100 | 36 | 37 | 84 | kinase still bound, per cent of control (EPHA4 (human)): 11%; kinase still bound, per cent of control (CASK (human)): 91%; kinase still bound, per cent of control (DDR2 (human)): 3.6%; kinase still bound, per cent of control (DAPK1 (human)): 48%; kinase still bound, per cent of control (CDKL2 (human)): 86%; kinase still bound, per cent of control (CAMKK2 (human)): 72%; kinase still bound, per cent of control (MAST1 (human)): 100%; kinase still bound, per cent of control (MAP3K6 (human)): 99%; kinase still bound, per cent of control (MAPK13 (human)): 100%; kinase still bound, per cent of control (RET (human)): 59%; kinase still bound, per cent of control (ANKK1 (human)): 100%; kinase still bound, per cent of control (PKMYT1 (human)): 65%; kinase still bound, per cent of control (CAMK2B (human)): 71%; kinase still bound, per cent of control (AKT1 (human)): 100%; kinase still bound, per cent of control (PRKACA (human)): 47%; kinase still bound, per cent of control (EPHB4 (human)): 11%; kinase still bound, per cent of control (MAP2K4 (human)): 100%; kinase still bound, per cent of control (PRPF4B (human)): 100%; kinase still bound, per cent of control (ADCK3 (human)): 88%
